According to ChEMBL document CHEMBL5247634, “Design, synthesis and anticancer evaluation of selective 2,4-disubstituted pyrimidine CDK9 inhibitors” (Eur J Med Chem, 2022):
Each block holds one compound with its values, some of them ahead of it. The source made the active and inactive calls. The rule behind the calls is not given here.

Assays:
Homo sapiens = organism: Homo sapiens; experiment: Selectivity index, ratio of IC50 for CDK2/cyclin A (unknown origin) to IC50 for CDK9/cyclin T1 (unknown origin)
[1] = target: Cyclin-dependent kinase 2/cyclin A (Homo sapiens, UniProt P24941); experiment: Inhibition of CDK2/cyclin A (unknown origin) incubated for 1 hr in presence of ATP by ADP-glo luminescent assay; assay type: protein-complex assay
PANC-1 [2] = experiment: Antiproliferative activity against human PANC-1 cells assessed as cell growth inhibition measured after 72 hrs by MTT assay; assay type: functional, cell-based; settings: PANC-1, 72 h
L02 = experiment: Antiproliferative activity against human L02 cells assessed as cell growth inhibition measured after 72 hrs by MTT assay; assay type: functional, cell-based; settings: L02, 72 h
NCI-H1975 = experiment: Antiproliferative activity against human NCI-H1975 cells assessed as cell growth inhibition measured after 72 hrs by MTT assay; assay type: functional, cell-based; settings: NCI-H1975, 72 h
CDK9/cyclin T1 = CDK9/cyclin T1 (Homo sapiens, UniProt P50750); experiment: Inhibition of CDK9/cyclin T1 (unknown origin) using as PDKtide substrate incubated for 1 hr in presence of ATP by ADP-glo luminescent assay; assay type: protein-complex assay
Chain of CDK9/cyclin T1 (O60563 whole entry): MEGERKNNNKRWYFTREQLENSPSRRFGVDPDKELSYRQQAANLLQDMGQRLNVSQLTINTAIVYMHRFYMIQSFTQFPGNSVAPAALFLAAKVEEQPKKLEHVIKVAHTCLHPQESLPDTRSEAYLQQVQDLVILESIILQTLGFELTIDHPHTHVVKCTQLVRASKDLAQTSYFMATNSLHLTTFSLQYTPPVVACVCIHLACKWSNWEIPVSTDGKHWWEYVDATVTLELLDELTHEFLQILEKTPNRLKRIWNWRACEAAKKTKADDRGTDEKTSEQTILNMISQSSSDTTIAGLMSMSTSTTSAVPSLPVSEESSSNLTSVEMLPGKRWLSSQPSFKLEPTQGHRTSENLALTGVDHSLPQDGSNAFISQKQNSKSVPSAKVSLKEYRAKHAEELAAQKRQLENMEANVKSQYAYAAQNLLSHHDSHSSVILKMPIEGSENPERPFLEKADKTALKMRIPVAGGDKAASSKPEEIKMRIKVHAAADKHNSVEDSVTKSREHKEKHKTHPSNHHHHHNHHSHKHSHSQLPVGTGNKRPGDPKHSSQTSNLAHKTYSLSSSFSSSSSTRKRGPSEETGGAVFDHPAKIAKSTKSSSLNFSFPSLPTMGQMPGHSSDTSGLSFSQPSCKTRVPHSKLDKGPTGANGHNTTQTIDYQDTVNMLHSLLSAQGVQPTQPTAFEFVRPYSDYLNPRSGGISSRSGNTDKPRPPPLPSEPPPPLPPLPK
Chain of CDK9/cyclin T1 (P50750 whole entry): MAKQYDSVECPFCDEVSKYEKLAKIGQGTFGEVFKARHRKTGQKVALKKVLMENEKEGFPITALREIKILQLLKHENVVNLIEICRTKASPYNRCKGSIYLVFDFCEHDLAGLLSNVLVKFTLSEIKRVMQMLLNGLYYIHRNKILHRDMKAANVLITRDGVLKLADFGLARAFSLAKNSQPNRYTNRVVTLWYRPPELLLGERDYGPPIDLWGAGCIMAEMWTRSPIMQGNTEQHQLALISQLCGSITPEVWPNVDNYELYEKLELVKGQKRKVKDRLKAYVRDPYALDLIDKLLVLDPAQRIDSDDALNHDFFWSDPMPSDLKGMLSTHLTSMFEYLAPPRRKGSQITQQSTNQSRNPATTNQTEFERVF

A-431 = experiment: Antiproliferative activity against human A-431 cells assessed as cell growth inhibition measured after 72 hrs by MTT assay; assay type: functional, cell-based; settings: A-431, 72 h
HCT-116 = experiment: Antiproliferative activity against human HCT-116 cells assessed as cell growth inhibition measured after 72 hrs by MTT assay; assay type: functional, cell-based; settings: HCT-116, 72 h
[3] = target: Cyclin-dependent kinase 2 (Homo sapiens, UniProt P24941)
Description: Inhibition of CDK2 (unknown origin)

[4] = Toxicity in BALB/c nude mouse assessed as no obvious change in body weight at 5 to 20 mg/kg, ip administered for every other day for 4 weeks; assay type: organism-based; settings: in vivo, 672 h, dose 5-20 mg/kg
PANC-1 [5] = experiment: Induction of cell cycle arrest in human PANC-1 cells assessed as accumulation at G1 phase at 2.5 uM incubated for 24 hrs by propidium iodide staining based flow cytometric analysis (reference value: 80.36%); assay type: functional
PANC-1 [6] = experiment: Induction of apoptosis in human PANC-1 cells assessed as early apoptotic cells at 2.5 uM incubated for 48 hrs by Annexin-V-FITC/PI staining based flow cytometric analysis (reference value: 2.21%); assay type: functional
PANC-1 [7] = experiment: Induction of cell cycle arrest in human PANC-1 cells assessed as accumulation at G2M phase at 0.1 uM incubated for 24 hrs by propidium iodide staining based flow cytometric analysis (reference value: 2.16%); assay type: functional
PANC-1 [8] = experiment: Induction of cell cycle arrest in human PANC-1 cells assessed as accumulation at G2M phase at 2.5 uM incubated for 24 hrs by propidium iodide staining based flow cytometric analysis (reference value: 2.16%); assay type: functional
PANC-1 [9] = experiment: Antitumor activity against human PANC-1 cells xenografted in BALB/c nude mouse assessed as reduction in tumor growth rate at 10 mg/kg, ip administered for every other day for 4 weeks relative to control; assay type: functional; design: scale not given: the % may be the effect or the level left
PANC-1 [10] = experiment: Inhibition of CDK9 expression in human PANC-1 cells incubated for 24 hrs by Western blot analysis; assay type: functional, cell-based; settings: dose 0.1-2.5 µM
PANC-1 [11] = experiment: Induction of apoptosis in human PANC-1 cells assessed as necrotic cells at 2.5 uM incubated for 48 hrs by Annexin-V-FITC/PI staining based flow cytometric analysis (reference value: 0.59%); assay type: functional
PANC-1 [12] = experiment: Induction of cell cycle arrest in human PANC-1 cells assessed as accumulation at G1 phase at 0.5 uM incubated for 24 hrs by propidium iodide staining based flow cytometric analysis (reference value: 80.36%); assay type: functional
PANC-1 [13] = experiment: Induction of apoptosis in human PANC-1 cells assessed as viable cells at 0.1 uM incubated for 48 hrs by Annexin-V-FITC/PI staining based flow cytometric analysis (reference value: 97.0%); assay type: functional; settings: read-out: Activity
PANC-1 [14] = experiment: Induction of cell cycle arrest in human PANC-1 cells assessed as accumulation at S phase at 0.5 uM incubated for 24 hrs by propidium iodide staining based flow cytometric analysis (reference value: 17.48%); assay type: functional
PANC-1 [15] = experiment: Induction of cell cycle arrest in human PANC-1 cells assessed as accumulation at G2M phase at 0.5 uM incubated for 24 hrs by propidium iodide staining based flow cytometric analysis (reference value: 2.16%); assay type: functional
PANC-1 [16] = experiment: Induction of apoptosis in human PANC-1 cells assessed as late apoptotic cells at 0.1 uM incubated for 48 hrs by Annexin-V-FITC/PI staining based flow cytometric analysis (reference value: 0.22%); assay type: functional
PANC-1 [17] = experiment: Induction of apoptosis in human PANC-1 cells assessed as viable cells at 2.5 uM incubated for 48 hrs by Annexin-V-FITC/PI staining based flow cytometric analysis (reference value: 97.0%); assay type: functional; settings: read-out: Activity
PANC-1 [18] = experiment: Induction of apoptosis in human PANC-1 cells assessed as viable cells at 0.5 uM incubated for 48 hrs by Annexin-V-FITC/PI staining based flow cytometric analysis (reference value: 97.0%); assay type: functional; settings: read-out: Activity
PANC-1 [19] = experiment: Induction of cell cycle arrest in human PANC-1 cells assessed as accumulation at G1 phase at 0.1 uM incubated for 24 hrs by propidium iodide staining based flow cytometric analysis (reference value: 80.36%); assay type: functional
[20] = Downregulation of RNAPII phosphorylation level in human PANC-1 cells at 2.5 uM incubated for 24 hrs by Western blot analysis; assay type: functional
[21] = Toxicity in BALB/c nude mouse xenografted with human PANC-1 cells assessed as mortality at 5 to 20 mg/kg, ip administered for every other day for 4 weeks; assay type: organism-based; settings: in vivo, 672 h, dose 5-20 mg/kg
PANC-1 [22] = experiment: Induction of apoptosis in human PANC-1 cells assessed as early apoptotic cells at 0.5 uM incubated for 48 hrs by Annexin-V-FITC/PI staining based flow cytometric analysis (reference value: 2.21%); assay type: functional
PANC-1 [23] = experiment: Downregulation of RNAPII phosphorylation level in human PANC-1 cells at 0.5 uM incubated for 24 hrs by Western blot analysis; assay type: functional, cell-based
PANC-1 [24] = experiment: Induction of apoptosis in human PANC-1 cells assessed as late apoptotic cells at 0.5 uM incubated for 48 hrs by Annexin-V-FITC/PI staining based flow cytometric analysis (reference value: 0.22%); assay type: functional
[25] = Toxicity in BALB/c nude mouse xenografted with human PANC-1 cells assessed as no tissue lesions and necrosis at 5 to 20 mg/kg, ip administered for every other day for 4 weeks; assay type: organism-based; settings: in vivo, 672 h, dose 5-20 mg/kg
PANC-1 [26] = experiment: Induction of apoptosis in human PANC-1 cells assessed as necrotic cells at 0.1 uM incubated for 48 hrs by Annexin-V-FITC/PI staining based flow cytometric analysis (reference value: 0.59%); assay type: functional
A549 = experiment: Antiproliferative activity against human A549 cells assessed as cell growth inhibition measured after 72 hrs by MTT assay; assay type: functional, cell-based; settings: A549, 72 h
PANC-1 [27] = experiment: Antitumor activity against human PANC-1 cells xenografted in BALB/c nude mouse assessed as reduction in tumor growth rate at […], ip administered for every other day for 4 weeks relative to control; assay type: functional; design: scale not given: the % may be the effect or the level left
PANC-1 [28] = experiment: Induction of apoptosis in human PANC-1 cells assessed as necrotic cells at 0.5 uM incubated for 48 hrs by Annexin-V-FITC/PI staining based flow cytometric analysis (reference value: 0.59%); assay type: functional
PANC-1 [29] = experiment: Antitumor activity against human PANC-1 cells xenografted in BALB/c nude mouse assessed as reduction in tumor growth rate at 20 mg/kg, ip administered for every other day for 4 weeks relative to control; assay type: functional; design: scale not given: the % may be the effect or the level left
PANC-1 [30] = experiment: Induction of apoptosis in human PANC-1 cells assessed as late apoptotic cells at 2.5 uM incubated for 48 hrs by Annexin-V-FITC/PI staining based flow cytometric analysis (reference value: 0.22%); assay type: functional
PANC-1 [31] = experiment: Induction of apoptosis in human PANC-1 cells assessed as early apoptotic cells at 0.1 uM incubated for 48 hrs by Annexin-V-FITC/PI staining based flow cytometric analysis (reference value: 2.21%); assay type: functional
PANC-1 [32] = experiment: Induction of cell cycle arrest in human PANC-1 cells assessed as accumulation at S phase at 2.5 uM incubated for 24 hrs by propidium iodide staining based flow cytometric analysis (reference value: 17.48%); assay type: functional
PANC-1 [33] = experiment: Induction of cell cycle arrest in human PANC-1 cells assessed as accumulation at S phase at 0.1 uM incubated for 24 hrs by propidium iodide staining based flow cytometric analysis (reference value: 17.48%); assay type: functional

SMILES: COc1cc(F)ccc1-c1ccnc(NC(=O)[C@H]2CCC[C@@H](NC(C)=O)C2)c1
IC50 [3]: 2460 nM

SMILES: CN(C)CCNC(=O)c1ccc(Nc2nccc(-c3ccc(F)cc3OCc3ccccc3)n2)cc1
Activity [4]: Non-Toxic
Selectivity Index (Homo sapiens): 84.3
Activity (PANC-1 [5]): 46.01%
Activity (PANC-1 [6]): 8.44%
Activity (PANC-1 [7]): 21.83%
IC50 [1]: 876 nM
Activity (PANC-1 [8]): 34.26%
Activity (PANC-1 [9]): 32.6%
inhibition (PANC-1 [10]): Dose-Dependent Effect
Activity (PANC-1 [11]): 4.35%
Activity (PANC-1 [12]): 53.9%
viability at 0.1 µM (PANC-1 [13]): 52.4%
Activity (PANC-1 [14]): 20.25%
Activity (PANC-1 [15]): 25.85%
Activity (PANC-1 [16]): 19.9%
viability at 2.5 µM (PANC-1 [17]): 29.8%
IC50 (PANC-1 [2]): 80 nM
viability at 0.5 µM (PANC-1 [18]): 40.1%
Activity (PANC-1 [19]): 55.25%
inhibition at 2.5 µM [20]: 100%
Activity [21]: Non-Toxic
Activity (PANC-1 [22]): 8.41%
Activity (PANC-1 [23]): Active
IC50 (L02): 1430 nM
Activity (PANC-1 [24]): 45.7%
Activity [25]: Non-Toxic
Activity (PANC-1 [26]): 4.07%
IC50 (NCI-H1975): 430 nM
IC50 (CDK9/cyclin T1): 10.4 nM
IC50 (A549): 660 nM
Activity (PANC-1 [27]): 6.2%
Activity (PANC-1 [28]): 5.78%
IC50 (A-431): 100 nM
Activity (PANC-1 [29]): 54.2%
Activity (PANC-1 [30]): 57.4%
IC50 (HCT-116): 90 nM
Activity (PANC-1 [31]): 23.7%
Activity (PANC-1 [32]): 19.73%
Activity (PANC-1 [33]): 22.92%

SMILES: COc1cc(F)ccc1-c1ccnc(Nc2ccc(C(=O)NCCN(C)C)cc2)n1
IC50 (PANC-1 [2]): 4580 nM
IC50 (L02): 20600 nM
IC50 (NCI-H1975): 2170 nM
IC50 (A549): 4670 nM
IC50 (A-431): 3690 nM
IC50 (HCT-116): 12500 nM

SMILES: CNCCNC(=O)c1ccc(Nc2nccc(-c3ccc(F)cc3OCc3ccccc3)n2)cc1
IC50 (PANC-1 [2]): 3900 nM
IC50 (L02): 18600 nM
IC50 (NCI-H1975): 1150 nM
IC50 (A549): 3800 nM
IC50 (A-431): 2840 nM
IC50 (HCT-116): 3300 nM

SMILES: O=C(O)c1ccc(Nc2nccc(-c3ccc(F)cc3OCc3ccccc3)n2)cc1
Selectivity Index (Homo sapiens): 7.4
IC50 [1]: 636 nM
IC50 (PANC-1 [2]): 12700 nM
IC50 (L02): 22200 nM
IC50 (NCI-H1975): 8350 nM
IC50 (CDK9/cyclin T1): 86.2 nM
IC50 (A-431): 7280 nM
IC50 (HCT-116): 9690 nM

SMILES: O=C(NCCF)c1ccc(Nc2nccc(-c3ccc(F)cc3OCc3ccccc3)n2)cc1
IC50 (PANC-1 [2]): 52500 nM
IC50 (L02): 35400 nM
IC50 (NCI-H1975): 28500 nM
IC50 (A-431): 37100 nM
IC50 (HCT-116): 17600 nM

Continued, in another order:

Selectivity Index (Homo sapiens): 15.3
IC50 [1]: 915 nM
IC50 (PANC-1 [2]): 560 nM
IC50 (NCI-H1975): 860 nM
IC50 (CDK9/cyclin T1): 59.6 nM
IC50 (A-431): 590 nM
IC50 (HCT-116): 370 nM
SMILES: CC(C)N(CCNC(=O)c1ccc(Nc2nccc(-c3ccc(F)cc3OCc3ccccc3)n2)cc1)C(C)C
IC50 (L02): 2080 nM

IC50 (PANC-1 [2]): 110 nM
IC50 (NCI-H1975): 720 nM
IC50 (A-431): 340 nM
IC50 (HCT-116): 260 nM
SMILES: COc1cc(F)ccc1-c1ncnc(Nc2cccc(C[S@](C)(=N)=O)c2)n1 [ATUVECICLIB]
IC50 (L02): 2550 nM

IC50 (PANC-1 [2]): 1600 nM
IC50 (NCI-H1975): 5830 nM
IC50 (A549): 8470 nM
IC50 (A-431): 1840 nM
IC50 (HCT-116): 1270 nM
SMILES: O=C(NCCN1CCCCC1)c1ccc(Nc2nccc(-c3ccc(F)cc3OCc3ccccc3)n2)cc1
IC50 (L02): 3020 nM
